Experimental data reported in patent publication US20250382266A1, “5-HT2A RECEPTOR LIGANDS” (Psilera Inc., priority 2022, published 2025).

What was measured:
[1] = biological target: T1, 5-HT1A (Homo sapiens, UniProt P08908); test: radioligand binding at 5-HT1A; conditions: 50 nM; radioligand [3H]8-OH-DPAT
T1 sequence (P08908 1-422): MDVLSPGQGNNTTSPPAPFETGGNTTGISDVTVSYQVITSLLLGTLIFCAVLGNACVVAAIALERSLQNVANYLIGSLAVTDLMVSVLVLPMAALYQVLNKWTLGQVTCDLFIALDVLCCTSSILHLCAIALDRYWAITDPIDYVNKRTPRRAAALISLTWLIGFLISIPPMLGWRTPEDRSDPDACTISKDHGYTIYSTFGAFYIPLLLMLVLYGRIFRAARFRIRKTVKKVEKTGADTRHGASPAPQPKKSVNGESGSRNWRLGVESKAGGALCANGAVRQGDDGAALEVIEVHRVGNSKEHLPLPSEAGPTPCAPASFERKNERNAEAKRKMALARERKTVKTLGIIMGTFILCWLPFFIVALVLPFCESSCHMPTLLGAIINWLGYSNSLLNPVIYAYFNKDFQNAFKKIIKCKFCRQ
Method: (§1) In vitro pharmacological assessment of this compound (N-(2-(1H-indol-3-yl)ethyl)-2-(1H-indol-3-yl)-N-methylethan-1-amine) was performed using radioligand binding at various serotonergic and sigma receptors. The results appear in table 2 below

[2] = biological target: 5-HT2A (Homo sapiens, UniProt P28223); test: radioligand binding at 5-HT2A; conditions: 50 nM; radioligand [3H]ketanserin
Sequence of 5-HT2A (P28223 whole entry): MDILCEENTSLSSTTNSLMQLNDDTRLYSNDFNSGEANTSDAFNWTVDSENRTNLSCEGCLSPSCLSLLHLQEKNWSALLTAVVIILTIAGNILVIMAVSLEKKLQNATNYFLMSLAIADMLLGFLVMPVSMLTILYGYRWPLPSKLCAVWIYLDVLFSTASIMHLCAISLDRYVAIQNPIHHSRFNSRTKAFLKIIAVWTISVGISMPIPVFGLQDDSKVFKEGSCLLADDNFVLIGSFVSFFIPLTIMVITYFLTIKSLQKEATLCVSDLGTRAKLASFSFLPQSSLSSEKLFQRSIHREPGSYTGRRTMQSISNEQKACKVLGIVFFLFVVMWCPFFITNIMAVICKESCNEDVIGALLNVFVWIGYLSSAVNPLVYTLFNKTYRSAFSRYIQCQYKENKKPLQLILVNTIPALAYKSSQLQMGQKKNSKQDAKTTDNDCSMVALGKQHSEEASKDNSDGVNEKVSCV
Method: as §1

[3] = biological target: 5-HT2B (Homo sapiens, UniProt P41595); test: radioligand binding at 5-HT2B; conditions: 50 nM; radioligand [3H]mesulergine
Sequence of 5-HT2B (P41595 whole entry, species assumed): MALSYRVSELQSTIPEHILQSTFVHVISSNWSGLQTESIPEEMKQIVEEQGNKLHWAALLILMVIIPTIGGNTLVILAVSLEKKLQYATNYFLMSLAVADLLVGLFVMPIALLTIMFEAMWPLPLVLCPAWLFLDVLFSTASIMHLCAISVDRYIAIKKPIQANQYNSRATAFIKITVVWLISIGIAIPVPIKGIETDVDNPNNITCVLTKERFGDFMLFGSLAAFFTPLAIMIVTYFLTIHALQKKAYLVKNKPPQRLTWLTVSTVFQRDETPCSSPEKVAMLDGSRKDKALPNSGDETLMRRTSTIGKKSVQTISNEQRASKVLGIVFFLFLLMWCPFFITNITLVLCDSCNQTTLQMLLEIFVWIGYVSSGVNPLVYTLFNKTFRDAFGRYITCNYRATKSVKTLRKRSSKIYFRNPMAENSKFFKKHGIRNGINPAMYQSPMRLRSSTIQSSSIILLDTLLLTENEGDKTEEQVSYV
Method: as §1

[4] = biological target: T2, 5-HT2C (Homo sapiens, UniProt P28335); test: radioligand binding at 5-HT2C; conditions: 50 nM; radioligand [3H]mesulergine
T2 sequence (P28335 33-458): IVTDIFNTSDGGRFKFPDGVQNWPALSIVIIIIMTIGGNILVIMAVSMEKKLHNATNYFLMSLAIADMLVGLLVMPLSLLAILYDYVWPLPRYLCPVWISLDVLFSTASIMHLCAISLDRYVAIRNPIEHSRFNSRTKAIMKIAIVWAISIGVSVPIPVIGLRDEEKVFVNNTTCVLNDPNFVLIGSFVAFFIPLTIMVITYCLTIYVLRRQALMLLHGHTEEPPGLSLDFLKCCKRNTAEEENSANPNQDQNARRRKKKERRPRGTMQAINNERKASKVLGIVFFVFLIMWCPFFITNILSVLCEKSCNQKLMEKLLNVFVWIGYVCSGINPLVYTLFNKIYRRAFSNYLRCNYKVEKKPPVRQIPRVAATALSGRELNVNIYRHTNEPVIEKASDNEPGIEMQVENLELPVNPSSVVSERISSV
Method: as §1

[5] = biological target: 5-HT6 (Homo sapiens, UniProt P50406); test: radioligand binding at 5-HT6; conditions: 50 nM; radioligand [3H]LSD
Sequence of 5-HT6 (P50406 whole entry, species assumed): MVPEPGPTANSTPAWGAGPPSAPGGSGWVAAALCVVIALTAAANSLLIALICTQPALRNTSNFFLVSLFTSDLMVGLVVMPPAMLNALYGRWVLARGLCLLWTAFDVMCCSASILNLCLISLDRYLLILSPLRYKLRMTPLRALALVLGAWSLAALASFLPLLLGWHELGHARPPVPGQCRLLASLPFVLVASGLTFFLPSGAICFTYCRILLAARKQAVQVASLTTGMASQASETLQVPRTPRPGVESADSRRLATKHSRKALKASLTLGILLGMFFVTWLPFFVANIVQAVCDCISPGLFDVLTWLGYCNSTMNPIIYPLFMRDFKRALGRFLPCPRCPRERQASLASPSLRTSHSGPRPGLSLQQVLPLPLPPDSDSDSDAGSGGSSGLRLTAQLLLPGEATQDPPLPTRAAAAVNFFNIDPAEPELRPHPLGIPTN
Method: as §1

[6] = biological target: 5-HT7 (Homo sapiens, UniProt P34969); test: radioligand binding at 5-HT7; conditions: 50 nM; radioligand [3H]LSD
Sequence of 5-HT7 (P34969 whole entry, species assumed): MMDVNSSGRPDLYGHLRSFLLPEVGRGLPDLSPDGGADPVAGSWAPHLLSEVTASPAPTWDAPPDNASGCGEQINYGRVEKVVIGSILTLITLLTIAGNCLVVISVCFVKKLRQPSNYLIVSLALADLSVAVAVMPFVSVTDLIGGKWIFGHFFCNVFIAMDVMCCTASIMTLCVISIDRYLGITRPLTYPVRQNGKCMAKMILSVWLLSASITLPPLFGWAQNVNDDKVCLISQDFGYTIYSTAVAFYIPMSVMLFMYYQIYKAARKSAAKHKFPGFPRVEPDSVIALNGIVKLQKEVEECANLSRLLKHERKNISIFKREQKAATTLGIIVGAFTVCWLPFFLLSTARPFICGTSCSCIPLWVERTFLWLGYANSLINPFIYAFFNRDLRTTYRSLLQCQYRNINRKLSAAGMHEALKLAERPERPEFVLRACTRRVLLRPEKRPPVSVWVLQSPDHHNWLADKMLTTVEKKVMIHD
Method: as §1

[7] = biological target: Sigma 1 (Homo sapiens, UniProt Q99720); test: radioligand binding at Sigma 1; conditions: 500 nM; radioligand [3H](+)pentazocine
Sequence of Sigma 1 (Q99720 whole entry): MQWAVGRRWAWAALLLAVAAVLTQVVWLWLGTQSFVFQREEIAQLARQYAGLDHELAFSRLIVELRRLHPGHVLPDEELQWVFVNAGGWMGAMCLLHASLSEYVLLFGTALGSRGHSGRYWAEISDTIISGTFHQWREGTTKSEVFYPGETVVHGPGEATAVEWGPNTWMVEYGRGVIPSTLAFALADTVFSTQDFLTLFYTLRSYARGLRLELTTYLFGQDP
Method: as §1

[8] = biological target: Sigma 2 (Homo sapiens, UniProt Q5BJF2); test: radioligand binding at Sigma 2; conditions: 500 nM; radioligand [3H]DTG + (+)pentazocine
Sequence of Sigma 2 (Q5BJF2 whole entry): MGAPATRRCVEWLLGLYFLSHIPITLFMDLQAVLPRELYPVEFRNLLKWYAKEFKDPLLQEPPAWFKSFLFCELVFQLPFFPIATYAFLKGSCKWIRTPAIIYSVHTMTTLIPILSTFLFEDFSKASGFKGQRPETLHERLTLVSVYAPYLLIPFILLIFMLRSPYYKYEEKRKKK
Method: as §1

CN(CCc1c[nH]c2ccccc12)CCc1c[nH]c2ccccc12 [Example 1, N-(2-(1H-indol-3-yl)ethyl)-2-(1H-indol-3-yl)-N-methylethan-1-amine]
inhibition at 0.05 µM [1]: 70.9% | inhibition at 0.05 µM [2]: 82.7% | inhibition at 0.05 µM [3]: 96.8% | inhibition at 0.05 µM [4]: 72.8% | inhibition at 0.05 µM [5]: 26.3% | inhibition at 0.05 µM [6]: 79.7% | inhibition at 0.5 µM [7]: 21.7% | inhibition at 0.5 µM [8]: 26.1%
